Reference: patent publication US10723726B2, “Solid forms of (Z)-4-(5-((3-benzyl-4-oxo-2-thioxothiazolidin-5-ylidene)methyl)furan-2-yl)benzoic acid” (GB006, INC., priority 2015, dated 2020)
Values after ≈ are worked out from the molar mass of the structure shown. Counter-ions that a name gives are not always drawn.

Columns and labels:
[1] = physchem
Source text: A limited salt screen was previously conducted using five inorganic counter-ions (Na, K, NH4, Ca and Mg).

[2] = rats; cited from earlier work
[3] = Rat PK of LA1 free acid, first experiment (2-hydroxypropyl-β-cyclodextrin dose solution); assay type: in vivo, Sprague Dawley (SD) rats; details: 30% 2-hydroxypropyl-β-cyclodextrin in PBS
Protocol: In a first experiment, the dose solution was prepared in 30% w:v 2-hydroxypropyl-β-cyclodextrin prepared in PBS at 2 mg/kg. Improved bioavailability was needed.

[4] = in vivo; details: male
Protocol: Test system: Healthy Beagle dog weighing 10-12 kg (age 10 months), males were used for the study. Crossover design was adopted for the experiments wherein 03 dogs were used in the study for oral and intravenous administration. The animals were housed stainless steel cage provided with a hopper to hold pellet feed and a separate water hopper. Temperature and humidity was maintained at 23±5° C. and 30-70%, respectively. The illumination was controlled to give a sequence of 12 h light and 12 h dark cycle. All the animals were adapted to the experimental conditions for at least 5 days prior to dosing. All animals were provided with Pedigree™ standard pellet feed, except for 10 to 12 h before treatment and 4 h after the drug administration. Water was provided ad libidum.
Formulation and drug administration: 251.02 mg of test item was transferred in to a clean mortar. Test item was ground uniformly using pestle. 1.235 ml of Tween 80 was added and the material was mixed. A small quantity of 0.5% (w/v) methylcellulose in water was added and the mixture was triturated. 0.5% methyl cellulose was added to make a final volume of 190 ml. Finally the above formulation was transferred to a pre-labeled beaker and sonicated for five minutes. Suspension was dosed under stirring conditions by placing on a magnetic stirrer.
The dose formulation of LA-1.choline was administered by oral gavage using a feeding gavage tube. The required volume of dose formulation (5 ml/kg body weight) was draw up into a graduated syringe. The dog was properly restrained with the help of another person so as to restrict movement. The feeding tube was inserted slowly in the mouth through the space between cheek and the teeth towards esophagus to the stomach. Proper placement of tube was confirmed by dipping the outside end of tube in a container with water and looking for air bubbles. Absence of air bubbles confirmed the location of tube in the stomach. The required dose volume of LA-1.choline suspension was slowly administered through the feeding tube. Air was pushed through at the end to ensure empting of the tube. The tube was slowly taken out and discarded.
Intravenous drug formulation: Accurately weighed 27.49 mg of test item was transferred in to the clean tube. A volume of 0.417 mL DMSO was added and mixed until the test dissolves completely. A volume 0.417 mL of Solutol:alcohol (1:1, v/v) was added and mixed, to this, 7.496 mL of normal saline was added and vortexed. Finally, the above formulation was used for dosing.
The required volume of dose formulation (0.2 ml/kg body weight) of LA-1.choline was drawn up into a graduated syringe. Air bubbles were removed from the syringe before dosing. The dog was restrained in the standing position. The upper portion of injection site of cephalic vein was compressed and the needle of the butterfly vein catheter sized 22G was slowly inserted in the vein. Once blood reached the end of the catheter tube, it was connected to the syringe. The dose formulation was immediately injected slowly. At the end of administration, approximately 0.5 mL of normal saline was injected via catheter to ensure the required dose volume was administrated. Last, the needle was removed.
Sample collection: Post-dosing ˜1.5 ml of blood sample from each dog for the following time points 0.25, 0.5, 1, 1.5, 2, 3, 5, 8, 10 and 24 h was collected from the jugular vein into K2EDTA containing pre-labeled vacutainer centrifuge tubes. Plasma was obtained by centrifuging blood samples at 2500 g for 10 min. under refrigeration (2-4° C.) within 0.5 h of sampling. The obtained plasma samples were transferred into pre-labeled microcentrifuge tubes (approximately ˜300 μl) and stored at or below −70±10° C. The sample labels include details such as study number, test item code and dose group and/or day of sampling, animal number, time point.
Extraction procedure: The plasma separated from the whole blood was used for bio-analysis.

[5] = Sprague Dawley, in vivo, PO 2 mg/kg
[6] = Beagle, dog, iv, 0.5 mg/kg, Plasma concentration
[7] = Beagle, dog, po, 5 mg/kg, Mean conc.
[8] = Beagle, dog, po, 5 mg/kg, Plasma concentration
[9] = beagle, dog, iv, 0.5 mg/kg, Mean conc.
[10] = beagle, dog, iv, 0.5 mg/kg, Plasma concentration
[11] = beagle, dog, po, 5 mg/kg, Plasma concentration

Q: Which results are given for O=C(O)c1ccc(-c2ccc(/C=C3\SC(=S)N(Cc4ccccc4)C3=O)o2)cc1 [LA1, (Z)-4-(5-((3-benzyl-4-oxo-2-thioxothiazolidin-5-ylidene)methyl)furan-2-yl)benzoic acid]?
A: solubility [1]: 0.78 µg/mL (≈ 1.85 µM); neointimal thickening upon vascular injury [2]: reduce neointimal thickening; Rat Cl ([3]; PO - 2 mg/kg table): 11.1 mL/min/kg; Vss ([3]; PO - 2 mg/kg table): 0.59 L; AUC [3, 5]: 8.7 µM·h; MRT [3, 5]: 3.49 h; half-life [3, 5]: 2.03 h; bioavailability ([3]; Sprague Dawley, in vivo, PO 2 mg/kg, read-out: Rat F %): 15.1%

Q: With O=C(O)c1ccc(-c2ccc(/C=C3\SC(=S)N(Cc4ccccc4)C3=O)o2)cc1 [LA1 choline salt] as the molecule, how does the concentration at 0.25 h [4, 6] read?
A: The concentration at 0.25 h was 723 ng/mL.

Q: And the concentration at 0.5 h [4, 6]?
A: The concentration at 0.5 h was 501 ng/mL.

Q: And the concentration at 1 h [4, 6]?
A: Its concentration at 1 h is 397 ng/mL.

Q: What about the concentration at 2 h [4, 6] of the same molecule?
A: Its concentration at 2 h is 203 ng/mL.

Q: What about the concentration at 3 h [4, 6] of the same molecule?
A: The concentration at 3 h was 265 ng/mL.

Q: What about the concentration at 5 h [4, 6] of the same molecule?
A: The concentration at 5 h was 67.7 ng/mL.

Q: And the concentration at 8 h [4, 6]?
A: The concentration at 8 h was 44.4 ng/mL.

Q: And the concentration at 10 h [4, 6]?
A: The concentration at 10 h was 19.8 ng/mL.

Q: And the Plasma concentration ([4]; Beagle, dog, po, 5 mg/kg, 0.5 h)?
A: Its Plasma concentration is 2776 ng/mL.

Q: What about the Plasma concentration ([4]; Beagle, dog, po, 5 mg/kg, 1 h) of the same molecule?
A: Its Plasma concentration is 2706 ng/mL.

Q: And the Plasma concentration ([4]; Beagle, dog, po, 5 mg/kg, 2 h)?
A: Its Plasma concentration is 2055 ng/mL.

Q: And the Plasma concentration ([4]; Beagle, dog, po, 5 mg/kg, 3 h)?
A: The Plasma concentration was 2510 ng/mL.

Q: And the Plasma concentration ([4]; Beagle, dog, po, 5 mg/kg, 5 h)?
A: Its Plasma concentration is 429 ng/mL.

Q: And the concentration at 0.25 h [4, 7]?
A: The concentration at 0.25 h was 1100 ng/mL.

Q: And the concentration at 0.5 h [4, 7]?
A: The concentration at 0.5 h was 1880 ng/mL.

Q: And the concentration at 1 h [4, 7]?
A: Its concentration at 1 h is 1890 ng/mL.

Q: And the concentration at 2 h [4, 7]?
A: The concentration at 2 h was 1520 ng/mL.

Q: What about the concentration at 3 h [4, 7] of the same molecule?
A: Its concentration at 3 h is 1960 ng/mL.

Q: What about the concentration at 5 h [4, 7] of the same molecule?
A: The concentration at 5 h was 414 ng/mL.

Q: And the concentration at 8 h [4, 7]?
A: Its concentration at 8 h is 150 ng/mL.

Q: And the concentration at 10 h [4, 7]?
A: The concentration at 10 h was 128 ng/mL.

Q: What about the concentration at 24 h [4, 7] of the same molecule?
A: Its concentration at 24 h is 16.9 ng/mL.

Q: And the concentration at 0.5 h [4, 8]?
A: Its concentration at 0.5 h is 1870 ng/mL.

Q: What about the concentration at 1 h [4, 8] of the same molecule?
A: The concentration at 1 h was 1660 ng/mL.

Q: And the concentration at 2 h [4, 8]?
A: The concentration at 2 h was 1480 ng/mL.

Q: And the concentration at 3 h [4, 8]?
A: Its concentration at 3 h is 1810 ng/mL.

Q: What about the concentration at 5 h [4, 8] of the same molecule?
A: Its concentration at 5 h is 442 ng/mL.

Q: And the “Dog Cl” value ([4]; beagle)?
A: The value was 3.9 mL/min/kg.

Q: And the bioavailability ([4]; beagle, dog, Absolute oral bioavailability)?
A: The bioavailability was 50.6%.

Q: And the clearance ([4]; beagle, dog, Dog Cl (ml/min/kg))?
A: The clearance was 3.92 mL/min/kg.

Q: What about the bioavailability ([4]; beagle, dog, Dog F % (absolute oral bioavailability)) of the same molecule?
A: Its bioavailability is 43.4%.

Q: And the AUC0-t ([4]; beagle, dog, iv, 0.5 mg/kg)?
A: Its AUC0-t is 1330 ng·h/mL.

Q: And the AUC(0-inf) ([4]; beagle, dog, iv, 0.5 mg/kg)?
A: The AUC(0-inf) was 1350 ng·h/mL.

Q: What about the Cmax ([4]; beagle, dog, iv, 0.5 mg/kg) of the same molecule?
A: The Cmax was 2040 ng/mL.

Q: And the Vd ([4]; beagle, dog, iv, 0.5 mg/kg)?
A: Its Vd is 0.00072 L.

Q: And the Plasma concentration ([4]; beagle, dog, iv, 0.5 mg/kg, 0.25 h)?
A: Its Plasma concentration is 843 ng/mL.

Q: And the Plasma concentration ([4]; beagle, dog, iv, 0.5 mg/kg, 0.5 h)?
A: The Plasma concentration was 548 ng/mL.

Q: And the Plasma concentration ([4]; beagle, dog, iv, 0.5 mg/kg, 1 h)?
A: The Plasma concentration was 405 ng/mL.

Q: What about the clearance ([4]; beagle, dog, iv, 0.5 mg/kg, Cl) of the same molecule?
A: Its clearance is 0.0065 mL/min.

Q: And the half-life ([4]; beagle, dog, iv, 0.5 mg/kg, Half life)?
A: Its half-life is 2.15 h.

Q: What about the concentration at 0.25 h [4, 9] of the same molecule?
A: The concentration at 0.25 h was 851 ng/mL.

Q: And the concentration at 0.5 h [4, 9]?
A: The concentration at 0.5 h was 641 ng/mL.

Q: And the concentration at 1 h [4, 9]?
A: Its concentration at 1 h is 508 ng/mL.

Q: What about the concentration at 2 h [4, 9] of the same molecule?
A: The concentration at 2 h was 297 ng/mL.

Q: What about the concentration at 3 h [4, 9] of the same molecule?
A: Its concentration at 3 h is 421 ng/mL.

Q: And the concentration at 5 h [4, 9]?
A: The concentration at 5 h was 109 ng/mL.

Q: What about the concentration at 8 h [4, 9] of the same molecule?
A: Its concentration at 8 h is 44.1 ng/mL.

Q: What about the concentration at 10 h [4, 9] of the same molecule?
A: The concentration at 10 h was 27.6 ng/mL.

Q: What about the concentration at 0.25 h [4, 10] of the same molecule?
A: The concentration at 0.25 h was 987 ng/mL.

Q: And the concentration at 0.5 h [4, 10]?
A: The concentration at 0.5 h was 874 ng/mL.

Q: What about the concentration at 1 h [4, 10] of the same molecule?
A: The concentration at 1 h was 721 ng/mL.

Q: And the concentration at 24 h [4, 10]?
A: Its concentration at 24 h is 15.8 ng/mL.

Q: What about the AUC0-t ([4]; beagle, dog, po, 3 mg/kg) of the same molecule?
A: The AUC0-t was 2570 ng·h/mL.

Q: And the AUC(0-inf) ([4]; beagle, dog, po, 3 mg/kg)?
A: Its AUC(0-inf) is 2690 ng·h/mL.

Q: What about the Cmax ([4]; beagle, dog, po, 3 mg/kg) of the same molecule?
A: The Cmax was 685 ng/mL.

Q: And the Tmax ([4]; beagle, dog, po, 3 mg/kg)?
A: Its Tmax is 4 h.

Q: What about the half-life ([4]; beagle, dog, po, 3 mg/kg, Half life) of the same molecule?
A: Its half-life is 2.11 h.

Q: And the “Vdss” value ([4]; beagle, dog, po, 5 mg/kg)?
A: The value was 0.83 L/kg.

Q: What about the peak concentration ([4]; beagle, dog, po, 5 mg/kg) of the same molecule?
A: Its peak concentration is 2068 ng/mL.

Q: What about the “t1/2 (hr), oral half-life” value ([4]; beagle, dog, po, 5 mg/kg) of the same molecule?
A: Its value is 3.41 h.

Q: And the “time of peak concentration post dose” value ([4]; beagle, dog, po, 5 mg/kg)?
A: The value was 1.5 h.

Q: What about the concentration at 0.5 h [4, 11] of the same molecule?
A: Its concentration at 0.5 h is 999 ng/mL.

Q: What about the concentration at 1 h [4, 11] of the same molecule?
A: The concentration at 1 h was 1310 ng/mL.

Q: What about the concentration at 2 h [4, 11] of the same molecule?
A: Its concentration at 2 h is 1020 ng/mL.

Q: And the concentration at 3 h [4, 11]?
A: Its concentration at 3 h is 1560 ng/mL.

Q: What about the concentration at 5 h [4, 11] of the same molecule?
A: Its concentration at 5 h is 370 ng/mL.

Q: And the concentration at 8 h [4, 11]?
A: Its concentration at 8 h is 107 ng/mL.

Q: And the concentration at 10 h [4, 11]?
A: The concentration at 10 h was 158 ng/mL.

Q: And the half-life ([4]; beagle, dog, po, 5 mg/kg, t1/2 (hr), oral half-life)?
A: The half-life was roughly 3.4 h.
